In turn, `CCN(CC)C(=N)NC(=O)c1ccc(C2=N[C@@H]3CCCC[C@@H]3c3cc(OC)c(OC)cc32)cc1` [Compound 1, N′-{-[4-((4aR,10bR)-8,9-Dimethoxy-1,2,3,4,4a,10b-hexahydrophenanthridin-6yl)-phenyl]-methanoyl}-N,N-diethylquanidine] gave a melting point of 132 to 135 °C.
For `COc1cc2c(cc1OC)C1CCCCC1N=C2c1ccc(C(=O)NC(=N)N2CCN(C)CC2)cc1` (stereo not drawn) [Compound 5] the value was 133 °C; for `COc1cc2c(cc1OC)C1CCCCC1N=C2c1ccc(C(=O)NC(=N)N2CCCC2)cc1` [Compound 9, 4-((4aR,10bR)-8,9-Dimethoxy-1,2,3,4,4a.10b-hexahydro-phenanthridin-6-yl)-N-(1-imino-1-pyrrolidin-1-yl-methyl)-benzamide], 126 °C; for `COc1cc2c(cc1OC)[C@H]1CCCC[C@H]1N=C2c1ccc(C(=O)NC(=N)n2nc(C)cc2C)cc1` [Compound 11, 4((4aR,10bR)-8,9-Dimethoxy-1,2,3,4,4a,10b-hexahydro-phenanthridin-6-yl)-N-[1-(3,5-dimethyl-pyrazol-1-yl)-1-imino-methyl]-benzamide], 179 to 180 °C.
For `CCN(CC)C(=N)NC(=O)c1cccc(C2=NC3CCCCC3c3cc(OC)c(OC)cc32)c1` [Compound 12, N′-{1[3-((4aR,10bR)-8,9-Dimethoxy-1,2,3,4,a,10b-hexahydrophenanthridin-6-yl)-phenyl]-methanoyl}-N,N-diethylquanidine] the value was 89 to 91 °C; for `COc1cc2c(cc1OC)[C@H]1CCCC[C@H]1N=C2c1cccc(C(=O)NC(=N)N2CCOCC2)c1` [Compound 13, 3-((4aR,10bR)-8,9-Dimethoxy-1,2,3,4,4a,10b-hexahydrophenanthridin-6-yl)-N-(1-imino-1-morpholin-4yl-methyl)-benzamide], 187 to 188 °C.

What is called melting point is the temperature of the solid-liquid transition.

The values above are taken from US20060116518A1, “Novel phenanthridines” (Altana Pharma AG, priority 2002, published 2006).
